Assay results from ChEMBL document CHEMBL1201862, “PubChem BioAssay data set” (2004).
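96-well plates; 48 h exposure; 5 concentrations. Endpoints by linear interpolation between flanking doses. Not reached: highest tested concentration assigned. The concentration for 50% growth inhibition is given as GI50.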 The source made the active and inactive calls. Rule as the data show it: active = GI50 up to about 1.1 µM and inactive = higher.

What was measured:
Assay in all cases: inhibition of tumour cell growth, NCI panel, 48 h
[1] = test system: SK-MEL-2
[2] = test system: KM12
[3] = test system: SK-MEL-28
[4] = test system: RXF 393
[5] = test system: NCI-H226
[6] = test system: SW-620
[7] = test system: U-251
[8] = test system: T47D
[9] = test system: RPMI-8226
[10] = test system: MDA-N
[11] = test system: LOX IMVI
[12] = test system: SNB-75
[13] = test system: HL-60
[14] = test system: ACHN
[15] = test system: HOP-92
[16] = test system: UACC-62
[17] = test system: BT-549
[18] = test system: A549
[19] = test system: PC-3

Measured: GI50

CC(=O)O[C@@H]1C[C@@]23C[C@@]24CC[C@H](OC2OCC(O)C(O)C2O)C(C)(C)[C@@H]4CC=C3[C@]2(C)C[C@@H]3OC4(C[C@@H](C)[C@@H]3[C@@]12C)OC(O)[C@@]1(C)O[C@@H]41 (some centres not stated)
inactive: [1] 19.7 µM | [2] 33.7 µM | [3] 41.2 µM | [4] 15.9 µM | [5] 35.4 µM | [6] 36.5 µM | [7] 30.7 µM | [8] 20.8 µM | [9] 19.6 µM | [10] 30.9 µM | [11] 23.4 µM | [12] 25 µM | [13] 7.73 µM | [14] 43.5 µM | [15] 54.3 µM | [16] 21.7 µM | [17] 27.9 µM | [18] 48.9 µM | [19] 22.9 µM

O=c1oc2ccccc2c(-c2ccc(O)cc2)c1Oc1ccccc1
inactive: [1] 7.1 µM | [2] 23.6 µM | [3] 18.8 µM | [4] 23 µM | [5] > 47 µM | [6] 37.8 µM | [7] 8.51 µM | [8] > 100 µM | [9] 28.1 µM | [10] 14.3 µM | [11] 9.93 µM | [12] > 46.8 µM | [13] 54 µM | [14] 10.2 µM | [15] 10.2 µM | [16] 5.18 µM | [17] 3.33 µM | [18] 22.1 µM | [19] 8.49 µM

Cc1cc(CN2CCCCC2)c(O)c(CN2CCCCC2)c1
inactive: [1] > 100 µM | [2] > 100 µM | [3] > 100 µM | [4] > 100 µM | [5] > 100 µM | [6] > 100 µM | [7] > 100 µM | [8] > 100 µM | [9] 22.8 µM | [10] > 100 µM | [11] > 100 µM | [12] > 100 µM | [13] > 100 µM | [14] > 100 µM | [15] > 100 µM | [16] > 100 µM | [17] > 100 µM | [18] > 100 µM | [19] > 100 µM

O=C1NC(NCc2ccc(F)cc2)=N/C1=C\c1ccccc1Cl
inactive: [1] 15.8 µM | [2] 18.1 µM | [3] 23.6 µM | [4] 19.6 µM | [5] 18.1 µM | [6] 13.5 µM | [7] 14.7 µM | [8] 5.41 µM | [10] 16.8 µM | [11] 14.7 µM | [12] 7.4 µM | [13] 13.4 µM | [14] 20.7 µM | [15] 6.97 µM | [16] 15.7 µM | [17] 23.7 µM | [18] 17.2 µM | [19] 15.9 µM

CCOC(=O)CCC(NC(=O)OCc1ccccc1)C(=O)NNC(=O)OC(C)(C)C (configuration not stated)
inactive: [1] > 100 µM | [2] > 100 µM | [3] > 100 µM | [4] > 100 µM | [6] > 100 µM | [7] > 100 µM | [8] > 100 µM | [9] > 100 µM | [10] > 100 µM | [11] > 100 µM | [12] > 100 µM | [13] > 100 µM | [14] > 100 µM | [15] > 100 µM | [16] > 100 µM | [17] > 100 µM | [18] > 100 µM | [19] > 100 µM

S=C(NC/C(Br)=C/Br)Nc1cccc2ccccc12
inactive: [1] 20.4 µM | [4] 31.3 µM | [5] 26.7 µM | [7] 30.3 µM | [8] 40.4 µM | [9] 15.4 µM | [10] 25.4 µM | [11] 24.8 µM | [12] 33.5 µM | [13] 12.9 µM | [14] 28.9 µM | [15] 20.2 µM | [16] 24.2 µM | [17] 33.3 µM | [18] 34.2 µM | [19] 23.1 µM

COC(=O)C1(Cc2ccc3c(c2)CCC3)Cc2ccc3c(c2C1O)CCC3 (configuration not stated)
inactive: [2] 14.8 µM | [3] 14.7 µM | [4] 14.5 µM | [5] 18.5 µM | [6] 14.5 µM | [7] 15.8 µM | [8] 8.81 µM | [9] 17 µM | [10] 15.4 µM | [11] 12.6 µM | [12] 32.2 µM | [13] 23.1 µM | [14] 13 µM | [15] 10.1 µM | [16] 15.5 µM | [17] 14.9 µM | [18] 14.1 µM | [19] 15.1 µM
